The results in this text go back to patent publication US9266839B2, “Trifluoromethyl pyrazolyl guanidine F1F0-ATPase inhibitors and therapeutic uses thereof” (Lycera Corporation, priority 2013, dated 2016).

One series deals with Ramos cells. The series is described as follows: Cytotoxicity in Ramos cells. The settings on record: Homo sapiens; cytotoxicity in Ramos cells; read-out: Ramos Cell EC50. Type of series: cell-based. How it is done: (§1) Compounds in Table 5 below were tested for activity against F1F0-ATPase by measuring the ability of the compounds to inhibit ATP synthesis. In addition, the compounds were assessed for cytotoxicity in Ramos cells. Inhibition of F1F0-ATPase activity in synthesizing ATP and cytotoxicity in Ramos cells were measured according to the procedures described in K. M. Johnson et al. Chemistry & Biology 2005, 12, 485-496.
(§2) The activity of compound 3-chloro-N-(((3-chloro-5-fluorophenyl)amino)((5-(trifluoromethyl)-1H-pyrazol-3-yl)amino)methylene)benzamide towards F1F0-ATPase and Ramos cells was evaluated by performing multiple times the assay procedures described in Part I. In particular, activity against F1F0-ATPase was evaluated by measuring the ability of the compound to inhibit ATP synthesis in twelve independent experiments. Cytotoxicity towards Ramos cells was measured in thirteen independent experiments. Consistent with the procedure in Part I, the compound was dissolved in dimethylsulfoxide to form a solution that was applied to F1F0-ATPase or Ramos cells, and the assays were performed according to procedures described in K. M. Johnson et al. Chemistry & Biology 2005, 12, 485-496.
(§3) Similarly, EC50 values (for cytotoxicity towards Ramos cells) from multiple replications of the experimental procedure were averaged. The mean EC50 value for 3-chloro-N-(((3-chloro-5-fluorophenyl)amino)((5-(trifluoromethyl)-1H-pyrazol-3-yl)amino)methylene)benzamide for cytotoxicity towards Ramos cells was determined to be 59±6 nM.

Series [1] is described as follows: Cytotoxicity in Ramos cells. It is filed as cell-based. As to conditions: human, Ramos cells; mean of thirteen independent experiments; compound dissolved in dimethylsulfoxide; read-out: mean EC50 for cytotoxicity towards Ramos cells. How it is done:
as §1, §2, §3

A further series addresses Cytochrome P450 2D6 (Homo sapiens (Human), UniProt P10635). The series is described as follows: Inhibition of Cytochrome P450 2D6 in human liver microsomes. Type of series: in vitro ADME. The settings on record: 30 minutes incubation with test compound, substrate dextromethorphan 10 μM, read-out: CYP2D6 IC50. How it is done:
Master solutions were prepared containing human liver microsomes (Gibco, 0.2 mg/mL) and MgCl2 (5 mM) in potassium phosphate buffer (10 mM). To aliquots (169 μL) of the microsome solution was added test compound in acetonitrile (1 μL) and DMSO (1 μL) to provide final test compound concentrations of 0, 0.005, 0.05, 0.25, 1, 5, 10, and 25 μM.
NADPH (10 mM) in ultra-pure water (20 μL) was added, and this mixture was incubated at 37° C. for 30 minutes. The enzyme reaction then was initiated by the addition of enzyme substrate (dextromethorphan) dissolved in 1 μL of acetonitrile and 9 μL of ultra-pure water. The final substrate concentration was 10 μM.
After 20 minutes, the incubation mixture was diluted with 3 volumes of cold methanol containing imipramine (200 nM), labetalol (200 nM), and ketoprofen (2 μM) as internal standards. Samples were centrifuged at 16,000 g for 10 minutes, then an aliquot of the supernatant (200 μL) was removed and analyzed by LC/MS/MS.
LC/MS/MS analyses were performed in duplicate using a Shimadzu HPLC and an API 4000 mass spectrometer. Liquid chromatography employed a Phenomenex C18, 5 μm, 50×2 mm column fitted with a guard column. Solvent A was acetonitrile containing 0.1% v/v formic acid. Solvent B was water containing 0.1% v/v formic acid. […]
The formation of metabolites was evaluated by peak area, and data were analyzed using Prism 5.0 software (GraphPad). […]

Chain of Cytochrome P450 2D6 (P10635 whole entry): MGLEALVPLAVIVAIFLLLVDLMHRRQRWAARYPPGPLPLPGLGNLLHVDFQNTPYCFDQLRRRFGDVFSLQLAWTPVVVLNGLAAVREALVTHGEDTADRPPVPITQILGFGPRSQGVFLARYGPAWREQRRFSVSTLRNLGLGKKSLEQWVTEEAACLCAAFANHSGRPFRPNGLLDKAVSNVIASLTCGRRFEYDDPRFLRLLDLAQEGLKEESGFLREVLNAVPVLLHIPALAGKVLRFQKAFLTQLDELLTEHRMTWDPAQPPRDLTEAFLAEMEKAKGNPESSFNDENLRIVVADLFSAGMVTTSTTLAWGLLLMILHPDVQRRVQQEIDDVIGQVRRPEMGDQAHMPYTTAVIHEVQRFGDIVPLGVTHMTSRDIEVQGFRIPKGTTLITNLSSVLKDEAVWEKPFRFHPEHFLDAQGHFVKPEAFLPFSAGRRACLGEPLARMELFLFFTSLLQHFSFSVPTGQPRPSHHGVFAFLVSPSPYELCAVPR

`O=C(/N=C(/Nc1cc(F)cc(Cl)c1)Nc1cc(C(F)(F)F)[nH]n1)c1cccc(Cl)c1` [Compound 1, 3-chloro-N-(((3-chloro-5-fluorophenyl)amino)((5-(trifluoromethyl)-1H-pyrazol-3-yl)amino)methylene)benzamide]: the EC50 in the series on Ramos cells amounted to 50 nM; in series [1], 59 ± 6 nM. In addition, the IC50 on Cytochrome P450 2D6 was determined as 3200 nM. As for `O=C(/N=C(/Nc1cccc(Cl)c1)Nc1cc(C(F)(F)F)[nH]n1)c1cccc(Cl)c1` [Compound 2, 3-chloro-N-(((3-chlorophenyl)amino)((5-(trifluoromethyl)-1H-pyrazol-3-yl)amino)methylene)benzamide, reference compound], the concentration giving a half-maximal response (EC50) in the series with Ramos cells is 100 nM. At Cytochrome P450 2D6, the half-maximal inhibitory concentration (IC50) came to 1100 nM.

On to `O=C(/N=C(/Nc1cc(F)cc(Cl)c1)Nc1cc(C(F)F)[nH]n1)c1ccc(Cl)cc1` [Compound 3], for which the EC50 in the series on Ramos cells turned out to be 1840 nM. Still for that read-out and setting: for `O=C(/N=C(/Nc1cc(F)cc(Cl)c1)Nc1cc(C(F)(F)F)[nH]n1)c1ccc(Cl)cc1` [Compound 4] the value was 120 nM.
